Assay results published in ChEMBL document CHEMBL1133601, “Methyl-substituted dispiro-1,2,4,5-tetraoxanes: correlations of structural studies with antimalarial activity” (J Med Chem, 2000).

How the values were obtained:
Plasmodium falciparum [1] = assay: In vitro antimalarial activity against Plasmodium falciparum D6 (Sierra Leone); assay type: functional, organism-based
Plasmodium falciparum [2] = assay: In vitro antimalarial activity against Plasmodium falciparum W2 (Indochina); assay type: functional, organism-based

| SMILES | IC50 (Plasmodium falciparum [1]) | IC50 (Plasmodium falciparum [2]) |
| --- | --- | --- |
| C[C@@H]1CCC[C@@H](C)C12OOC1(OO2)[C@@H](C)CCC[C@@H]1C | > 1000 nM | > 1000 nM |
| C[C@@H]1CC[C@H]2[C@@H](C)C(=O)O[C@@H]3O[C@@]4(C)CC[C@@H]1[C@]32OO4 [ARTEMISININ] | 8.4 nM | 7.3 nM |
| CC1(C)CCCCC12OOC1(CCCCC1(C)C)OO2 (stereo unspecified) | > 1000 nM | > 1000 nM |
